Measurements published in patent US10040791B2, “Isoxazole derivative as mutant isocitrate dehydrogenase 1 inhibitor” (Daiichi Sankyo Company, Limited, priority 2014, dated 2018).
Read-outs that look alike come from different tables or passages of the source.

Assays:
[1] = system: HT1080 xenografted mice (IDH1R132C); assay: 2-HG production inhibitory activity using HT1080 xenografted mice; assay type: in vivo, mouse; conditions: Mus musculus, HT-1080, po, 6 h, read-out: Test Example 5 Ratio (%)
How it was run: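 Mice bearing HT1080 tumors received 75 mg/kg compound by oral gavage twice a day, three doses in total, at 10 mL/kg; vehicle-dosed mice were negative controls. Tumors were collected 6 h after the final dose, frozen, homogenized in methanol and centrifuged, and 2-HG was measured in the extracts.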

[2] = system: HT-1080 cells expressing IDH1R132C; assay: 2-HG production inhibitory activity using HT1080 cell; assay type: cell-based, human; conditions: Homo sapiens
Experimental: Then, 100 μL of growth medium B was added to each well, further 25 μL of a solution of each compound diluted to a predetermined concentration with growth medium B was added to each well, and the cells were incubated at 37° C. for 2 days under 5% CO2. […] Then, 150 μL of ultrapure water was further added to each well, and the mixture was stirred by pipetting and stored at −20° C.
The preserved solutions were thawed at room temperature.

IDH1R132C = IDH1R132C (Homo sapiens (Human), UniProt O75874, R132C); assay: Inhibitory activity against IDH1R132C enzyme (NADPH detection, WST-8); assay type: biochemical; conditions: 10 nM, residual NADPH detected with WST-8, read-out: Test Example 1 IDH1 R132C IC50
Chain of IDH1R132C (O75874 whole entry R132C): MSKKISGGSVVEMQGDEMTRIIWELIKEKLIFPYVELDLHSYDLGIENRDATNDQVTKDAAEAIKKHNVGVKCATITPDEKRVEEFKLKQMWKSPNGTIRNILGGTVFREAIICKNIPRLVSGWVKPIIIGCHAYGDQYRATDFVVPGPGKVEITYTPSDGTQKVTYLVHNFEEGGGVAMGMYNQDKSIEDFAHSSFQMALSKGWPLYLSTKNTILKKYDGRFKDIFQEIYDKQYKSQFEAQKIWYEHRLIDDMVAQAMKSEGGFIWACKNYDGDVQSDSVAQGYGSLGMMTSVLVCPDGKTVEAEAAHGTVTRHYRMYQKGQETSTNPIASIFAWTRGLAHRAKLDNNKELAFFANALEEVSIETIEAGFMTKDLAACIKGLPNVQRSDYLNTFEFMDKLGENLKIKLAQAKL

[3] = 2-HG production, HT1080 xenografted mice
[4] = HT-1080, 2-HG production, HT1080 cells, read-out: Test Example 3 IC50
[5] = HT-1080, read-out: Test Example 3 IC50 (nM)

For `C=CC(=O)N1CCN(c2onc(-c3c(Cl)cccc3Cl)c2C(=O)n2ccc3c(/C=C/C(=O)O)cccc32)C2(CC2)C1` [Example 147, (2E)-3-(1-{[5-[7-Acryloyl-4,7-diazaspiro[2.5]oct-4-yl]-3-(2,6-dichlorophenyl)-1,2-oxazol-4-yl]carbonyl}-1H-indol-4-yl)prop-2-enoic acid], the response vs control in vivo at 75 mg/kg [1, 3] was 18%, the IC50 [2, 4] was 219 nM and the IC50 (IDH1R132C) was 0.078 µM.

For `C=CC(=O)N1CC2(CC2)N(c2onc(-c3c(F)cccc3Cl)c2C(=O)n2ccc3c(/C=C/C(=O)O)cccc32)C[C@H]1CC` [Example 160, (2E)-3-[1-({5-[(6R)7-Acryloyl-6-ethyl-4,7-diazaspiro[2.5]oct-4-yl]-3-(2-chloro-6-fluorophenyl)-1,2-oxazol-4-yl}carbonyl)-1H-indol-4-yl]prop-2-enoic acid], the response vs control in vivo at 75 mg/kg [1, 3] was 47%, the IC50 [2, 4] was 106 nM and the IC50 (IDH1R132C) was 0.081 µM.

`Cc1cn(C(=O)c2c(-c3c(Cl)cc(Cl)cc3Cl)noc2C(C)(F)F)c2cccc(/C=C/C(=O)O)c12` [Example 51, (2E)-3-(1-{[5-(1,1-Difluoroethyl)-3-(2,4,6-trichlorophenyl)-1,2-oxazol-4-yl]carbonyl}-3-methyl-1H-indol-4-yl)prop-2-enoic acid] gave a response vs control in vivo at 75 mg/kg [1] of 52%, an IC50 [2, 5] of 83 nM and an IC50 (IDH1R132C) of 0.115 µM.

`CC(C)(F)c1onc(-c2c(Cl)cc(Cl)cc2Cl)c1C(=O)n1cc2c3c(c(F)ccc31)/C(=C/C(=O)O)CC2` [Example 67, (2E)-[6-Fluoro-1-{[5-(2-fluoropropan-2-yl)-3-(2,4,6-trichlorophenyl)-1,2-oxazol-4-yl]carbonyl}-3,4-dihydrobenzo[cd]indol-5(1H)-ylidene]ethanoic acid] was tested, and the response vs control in vivo at 75 mg/kg [1, 3] was 27%, the IC50 [2, 4] was 95 nM and the IC50 (IDH1R132C) was 0.154 µM.

Work on `Cc1cn(C(=O)c2c(-c3c(Cl)cc(Cl)cc3Cl)noc2C(C)(C)F)c2cccc(/C=C/C(=O)O)c12` [Example 21, (2E)-3-(1-{[5-(2-Fluoropropan-2-yl)-3-(2,4,6-trichlorophenyl)-1,2-oxazol-4-yl]carbonyl}-3-methyl-1H-indol-4-yl)prop-2-enoic acid] yielded a response vs control in vivo at 75 mg/kg [1] of 14%, an IC50 [2, 5] of 56 nM and an IC50 (IDH1R132C) of 0.095 µM.

For `C=CC(=O)N1CCN(c2onc(-c3c(Cl)cccc3Cl)c2C(=O)n2ccc3c(/C=C/C(=O)O)cccc32)CC1` [Example 142, (2E)-3-(1-{[5-(4-Acryloylpiperazin-1-yl)-3-(2,6-dichlorophenyl)-1,2-oxazol-4-yl]carbonyl}-1H-indol-4-yl)prop-2-enoic acid], the response vs control in vivo at 75 mg/kg [1, 3] was 56%, the IC50 [2, 4] was 134 nM and the IC50 (IDH1R132C) was 0.123 µM.

`C=CC(=O)N1CCC(c2onc(-c3c(Cl)cc(Cl)cc3Cl)c2C(=O)n2cc3c4c(cccc42)C(CC(=O)O)CC3)CC1` (stereo not drawn) [Example 125] was tested, and the response vs control in vivo at 75 mg/kg [1, 3] was 72%, the IC50 [2, 4] was 78 nM and the IC50 (IDH1R132C) was 0.454 µM.

`CC(C)(F)c1onc(-c2c(Cl)cc(Cl)cc2Cl)c1C(=O)n1cc2c3c(cccc31)/C(=C/C(=O)O)CC2` [Example 13, (2E)-[1-{[5-(2-Fluoropropan-2-yl)-3-(2,4,6-trichlorophenyl)-1,2-oxazol-4-yl]carbonyl}-3,4-dihydrobenzop[cd]indol-5(1H)-ylidene]ethanoic acid] gave a response vs control in vivo at 75 mg/kg [1, 3] of 28%, an IC50 [2, 4] of 51 nM and an IC50 (IDH1R132C) of 0.148 µM.

Molecule `C=CC(=O)N1CCC(c2onc(-c3c(Cl)cc(Cl)cc3Cl)c2C(=O)n2ccc3c(C4CC4C(=O)O)cccc32)CC1` (stereo not drawn) [Example 105] has a response vs control in vivo at 75 mg/kg [1, 3] of 27%, an IC50 [2, 4] of 32 nM and an IC50 (IDH1R132C) of 0.567 µM.

`C=CC(=O)N1C[C@@H](C)N(c2onc(-c3c(Cl)cccc3Cl)c2C(=O)n2ccc3c(/C=C/C(=O)O)cccc32)C2(CC2)C1` [Example 159, (2E)-3-[1-({5-[(5R)7-Acryloyl-5-methyl-4,7-diazaspiro[2.5]oct-4-yl]-3-(2,6-dichlorophenyl)-1,2-oxazol-4-yl}carbonyl)-1H-indol-4-yl]prop-2-enoic acid] was tested, and the response vs control in vivo at 75 mg/kg [1, 3] was 30%, the IC50 [2, 4] was 138 nM and the IC50 (IDH1R132C) was 0.084 µM.

Work on `COC1(c2onc(-c3c(Cl)cc(Cl)cc3Cl)c2C(=O)n2cc(C)c3c(/C=C/C(=O)O)cccc32)COC1` [Example 4, (2E)-3-(1-{[5-(3-Methoxyoxetan-3-yl)-3-(2,4,6-trichlorophenyl)-1,2-oxazol-4-yl]carbonyl}-3-methyl-1H-indol-4-yl)prop-2-enoic acid] yielded a response vs control in vivo at 75 mg/kg [1, 3] of 15%, an IC50 [2, 4] of 27 nM and an IC50 (IDH1R132C) of 0.056 µM.

In the case of `Cc1cc(Cl)cc(C)c1-c1noc(C(C)(C)F)c1C(=O)n1cc(C)c2c(/C=C/C(=O)O)cccc21` [Example 55, (2E)-3-(1-{[3-(4-Chloro-2,6-dimethylphenyl)-5-(2-fluoropropan-2-yl)-1,2-oxazol-4-yl]carbonyl}-3-methyl-1H-indol-4-yl)prop-2-enoic acid], the response vs control in vivo at 75 mg/kg [1, 3] is reported as 15%, the IC50 [2, 4] is reported as 62 nM and the IC50 (IDH1R132C) is reported as 0.125 µM.

`CCc1cn(C(=O)c2c(-c3c(Cl)cc(Cl)cc3Cl)noc2C(C)(C)F)c2cccc(/C=C/C(=O)O)c12` [Example 65, (2E)-3-(3-Ethyl-1-{[5-(2-fluoropropan-2-yl)-3-(2,4,6-trichlorophenyl)-1,2-oxazol-4-yl]carbonyl}-1H-indol-4-yl)prop-2-enoic acid] gave a response vs control in vivo at 75 mg/kg [1, 3] of 65%, an IC50 [2, 4] of 93 nM and an IC50 (IDH1R132C) of 0.198 µM.

`C=CC(=O)N1CC(c2onc(-c3c(Cl)cc(Cl)cc3Cl)c2C(=O)n2ccc3c(/C=C/C(=O)O)cccc32)C1` [Example 95] showed a response vs control in vivo at 75 mg/kg [1, 3] of 44%, an IC50 [2, 4] of 89 nM and an IC50 (IDH1R132C) of 0.067 µM.

Work on `Cc1cn(C(=O)c2c(-c3c(Cl)cccc3Cl)noc2C(C)(C)F)c2cccc(/C=C/C(=O)O)c12` [Example 53, (2E)-3-(1-{[3-(2,6-Dichlorophenyl)-5-(2-fluoropropan-2-yl)-1,2-oxazol-4-yl]carbonyl}-3-methyl-1H-indol-4-yl)prop-2-enoic acid] yielded a response vs control in vivo at 75 mg/kg [1, 3] of 60%, an IC50 [2, 4] of 146 nM and an IC50 (IDH1R132C) of 0.163 µM.

In the case of `C=CC(=O)N1CCN(c2onc(-c3c(F)cccc3Cl)c2C(=O)n2ccc3c(/C=C/C(=O)O)cccc32)C(C)(C)C1` [Example 157, (2E)-3-(1-{[5-(4-Acryloyl-2,2-dimethylpiperazin-1-yl)-3-(2-chloro-6-fluorophenyl)-1,2-oxazol-4-yl]carbonyl}-1H-indol-4-yl)prop-2-enoic acid], the response vs control in vivo at 75 mg/kg [1, 3] is reported as 89%, the IC50 [2, 4] is reported as 265 nM and the IC50 (IDH1R132C) is reported as 0.256 µM.

`C=CC(=O)N1C[C@@H](C)N(c2onc(-c3c(Cl)cc(Cl)cc3Cl)c2C(=O)n2ccc3c(/C=C/C(=O)O)cccc32)C[C@H]1C` [Example 152, (2E)-3-[1-({5-[(2R,5R)-4-Acryloyl-2,5-dimethylpiperazin-1-yl]-3-(2,4,6-trichlorophenyl)-1,2-oxazol-4-yl}carbonyl)-1H-indol-4-yl]prop-2-enoic acid] showed a response vs control in vivo at 75 mg/kg [1, 3] of 87%, an IC50 [2, 4] of 276 nM and an IC50 (IDH1R132C) of 0.222 µM.

`C=CC(=O)N1C[C@@H](C)N(c2onc(-c3c(Cl)cc(Cl)cc3Cl)c2C(=O)n2ccc3c(/C=C/C(=O)O)cccc32)[C@@H](C)C1` [Example 151, (2E)-3-(1-{[5-(4-Acryloyl-cis-2,6-dimethylpiperazin-1-yl)-3-(2,4,6-trichlorophenyl)-1,2-oxazol-4-yl]carbonyl}-1H-indol-4-yl)prop-2-enoic acid] was tested, and the response vs control in vivo at 75 mg/kg [1, 3] was 60%, the IC50 [2, 4] was 41 nM and the IC50 (IDH1R132C) was 0.168 µM.

In the case of `Cc1cn(C(=O)c2c(-c3c(Cl)cc(Cl)cc3Cl)noc2C2(C)CC2)c2cccc(/C=C/C(=O)O)c12` [Example 43, (2E)-3-(3-Methyl-1-{[5-(1-methylcyclopropyl)-3-(2,4,6-trichlorophenyl)-1,2-oxazol-4-yl]carbonyl}-1H-indol-4-yl)prop-2-enoic acid], the response vs control in vivo at 75 mg/kg [1, 3] is reported as 54%, the IC50 [2, 4] is reported as 63 nM and the IC50 (IDH1R132C) is reported as 0.139 µM.

With `Cc1cn(C(=O)c2c(-c3c(F)cc(Cl)cc3Cl)noc2C(C)(C)F)c2cccc(/C=C/C(=O)O)c12` [Example 47, (2E)-3-(1-{[3-(2,4-Dichloro-6-fluorophenyl)-5-(2-fluoropropan-2-yl)-1,2-oxazol-4-yl]carbonyl}-3-methyl-1H-indol-4-yl)prop-2-enoic acid] the response vs control in vivo at 75 mg/kg [1, 3] was 17%, the IC50 [2, 4] was 62 nM and the IC50 (IDH1R132C) was 0.098 µM.

`C=CC(=O)N1CCC(c2onc(-c3ccc(Cl)cc3Cl)c2C(=O)n2cc(C)c3c(/C=C/C(=O)O)cccc32)CC1` [Example 106] was tested, and the response vs control in vivo at 75 mg/kg [1, 3] was 12%, the IC50 [2, 4] was 23 nM and the IC50 (IDH1R132C) was 0.149 µM.

`COC1(c2onc(-c3c(Cl)cc(Cl)cc3Cl)c2C(=O)n2ccc3c(/C=C/C(=O)O)cccc32)COC1` [Example 3, (2E)-3-(1-{[5-(3-Methoxyoxetan-3-yl)-3-(2,4,6-trichlorophenyl)-1,2-oxazol-4-yl]carbonyl}-1H-indol-4-yl)prop-2-enoic acid] showed a response vs control in vivo at 75 mg/kg [1, 3] of 42%, an IC50 [2, 4] of 60 nM and an IC50 (IDH1R132C) of 0.064 µM.

With `C=CC(=O)N1CC2(CC2)N(c2onc(-c3c(F)cccc3Cl)c2C(=O)n2ccc3c(/C=C/C(=O)O)cccc32)C[C@H]1C` [Example 156, (2E)-3-[1-({5-[(6R)7-Acryloyl-6-methyl-4,7-diazaspiro[2.5]oct-4-yl]-3-(2-chloro-6-fluorophenyl)-1,2-oxazol-4-yl}carbonyl)-1H-indol-4-yl]prop-2-enoic acid] the response vs control in vivo at 75 mg/kg [1, 3] was 60%, the IC50 [2, 4] was 167 nM and the IC50 (IDH1R132C) was 0.167 µM.
